Laboratory results taken from ChEMBL document CHEMBL3352322, “Synthesis and biological evaluation of 3-phenethylazetidine derivatives as triple reuptake inhibitors” (Bioorg Med Chem Lett, 2014).

Key:
[1] = biological target: Sodium-dependent dopamine transporter (Homo sapiens, UniProt Q01959)
[2] = biological target: T1, Sodium-dependent serotonin transporter (Homo sapiens, UniProt P31645); type: cell-based, HEK293
CYP1A2 = biological target: T2, CYP1A2 (Homo sapiens, UniProt P05177); test: in vitro; settings: recombinant CYP1A2
T2 sequence (P05177 whole entry): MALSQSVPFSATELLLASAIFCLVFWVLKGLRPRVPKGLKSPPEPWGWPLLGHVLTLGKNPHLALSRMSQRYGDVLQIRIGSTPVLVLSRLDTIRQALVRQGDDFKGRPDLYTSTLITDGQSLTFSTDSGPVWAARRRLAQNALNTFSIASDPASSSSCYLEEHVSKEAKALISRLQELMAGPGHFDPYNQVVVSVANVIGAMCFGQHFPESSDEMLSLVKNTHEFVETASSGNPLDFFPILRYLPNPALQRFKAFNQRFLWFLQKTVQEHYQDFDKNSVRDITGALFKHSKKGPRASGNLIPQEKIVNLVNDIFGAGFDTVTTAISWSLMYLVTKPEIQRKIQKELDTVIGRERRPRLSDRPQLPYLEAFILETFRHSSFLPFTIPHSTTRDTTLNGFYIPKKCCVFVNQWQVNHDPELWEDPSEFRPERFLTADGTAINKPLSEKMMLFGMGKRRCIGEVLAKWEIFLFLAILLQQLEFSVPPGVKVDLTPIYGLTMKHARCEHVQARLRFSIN

CYP2D6 = CYP2D6 (Homo sapiens, UniProt P10635); test: in vitro; settings: recombinant CYP2D6
[3] = biological target: T1, Sodium-dependent serotonin transporter; settings: HEK293, at 1 µM
Target sequence in this assay (P31645 whole entry, looked up): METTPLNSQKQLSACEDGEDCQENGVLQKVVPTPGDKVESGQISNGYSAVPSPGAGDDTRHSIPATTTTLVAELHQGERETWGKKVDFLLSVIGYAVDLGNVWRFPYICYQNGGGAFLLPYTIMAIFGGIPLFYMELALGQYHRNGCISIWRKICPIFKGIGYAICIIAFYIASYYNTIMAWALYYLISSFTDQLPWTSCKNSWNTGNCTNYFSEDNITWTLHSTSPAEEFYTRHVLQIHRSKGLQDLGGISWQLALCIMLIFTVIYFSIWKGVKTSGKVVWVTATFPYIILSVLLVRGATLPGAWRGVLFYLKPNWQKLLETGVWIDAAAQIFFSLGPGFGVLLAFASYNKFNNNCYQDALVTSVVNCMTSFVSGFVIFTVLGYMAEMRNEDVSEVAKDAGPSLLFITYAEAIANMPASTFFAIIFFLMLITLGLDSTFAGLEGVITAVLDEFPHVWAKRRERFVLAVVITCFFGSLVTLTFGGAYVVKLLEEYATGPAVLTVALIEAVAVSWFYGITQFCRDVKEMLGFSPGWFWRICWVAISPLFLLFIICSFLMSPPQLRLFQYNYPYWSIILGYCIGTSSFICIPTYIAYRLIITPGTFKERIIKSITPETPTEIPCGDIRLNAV

[4] = biological target: T1, Sodium-dependent serotonin transporter; settings: HEK293, at 10 µM
Target sequence in this assay (P31645 whole entry, looked up): as above

[5] = Stability in human liver microsomes assessed as compound remaining at 1 uM after 30 mins by LC/MS analysis; type: ADME; settings: read-out: Stability
[6] = biological target: T1, Sodium-dependent serotonin transporter; settings: HEK293, at 0.1 µM
Target sequence in this assay (P31645 whole entry, looked up): as above

CYP2C19 = CYP2C19 (Homo sapiens, UniProt P33261); test: in vitro; settings: recombinant CYP2C19
[7] = biological target: T3, Sodium-dependent noradrenaline transporter (Homo sapiens, UniProt P23975)
CYP2C9 = CYP2C9 (Homo sapiens, UniProt P11712); test: in vitro; settings: recombinant CYP2C9
CYP3A4 = CYP3A4 (Homo sapiens, UniProt P08684); test: in vitro; settings: recombinant CYP3A4
[8] = biological target: T1, Sodium-dependent serotonin transporter; test: Ratio of venlafaxine IC50 to compound IC50 for serotonin reuptake at human SERT expressed in HEK293 cells at 0.1 uM after 15 mins by fluorescence neurotransmitter transporter assay; type: cell-based
Target sequence in this assay (P31645 whole entry, looked up): as above

[9] = biological target: T3, Sodium-dependent noradrenaline transporter; test: Ratio of venlafaxine IC50 to compound IC50 for norepinephrine reuptake at human NET expressed in HEK293 cells at 0.1 uM after 15 mins by fluorescence neurotransmitter transporter assay; type: cell-based
Cytochrome P450 3A4 = Cytochrome P450 3A4 (Homo sapiens, UniProt P08684)
Cytochrome P450 2C19 = Cytochrome P450 2C19 (Homo sapiens, UniProt P33261)
Cytochrome P450 2C9 = Cytochrome P450 2C9 (Homo sapiens, UniProt P11712)
Cytochrome P450 2D6 = Cytochrome P450 2D6 (Homo sapiens, UniProt P10635)
Cytochrome P450 1A2 = biological target: T4, Cytochrome P450 1A2 (Homo sapiens, UniProt P05177)
T4 sequence (P05177 whole entry): T2 sequence (P05177 whole entry)

[10] = biological target: T3, Sodium-dependent noradrenaline transporter; test: Ratio of duloxetine IC50 to compound IC50 for norepinephrine reuptake at human NET expressed in HEK293 cells at 0.1 uM after 15 mins by fluorescence neurotransmitter transporter assay; type: cell-based
[11] = biological target: T1, Sodium-dependent serotonin transporter; test: Ratio of duloxetine IC50 to compound IC50 for serotonin reuptake at human SERT expressed in HEK293 cells at 0.1 uM after 15 mins by fluorescence neurotransmitter transporter assay; type: cell-based
Target sequence in this assay (P31645 whole entry, looked up): as above

[12] = biological target: Voltage-gated inwardly rectifying potassium channel KCNH2 (Homo sapiens, UniProt Q12809); test: Inhibition of human ERG expressed in CHO-K1 cells by patch-clamp electrophysiology method; type: cell-based

Sequence of Sodium-dependent dopamine transporter (Q01959 whole entry): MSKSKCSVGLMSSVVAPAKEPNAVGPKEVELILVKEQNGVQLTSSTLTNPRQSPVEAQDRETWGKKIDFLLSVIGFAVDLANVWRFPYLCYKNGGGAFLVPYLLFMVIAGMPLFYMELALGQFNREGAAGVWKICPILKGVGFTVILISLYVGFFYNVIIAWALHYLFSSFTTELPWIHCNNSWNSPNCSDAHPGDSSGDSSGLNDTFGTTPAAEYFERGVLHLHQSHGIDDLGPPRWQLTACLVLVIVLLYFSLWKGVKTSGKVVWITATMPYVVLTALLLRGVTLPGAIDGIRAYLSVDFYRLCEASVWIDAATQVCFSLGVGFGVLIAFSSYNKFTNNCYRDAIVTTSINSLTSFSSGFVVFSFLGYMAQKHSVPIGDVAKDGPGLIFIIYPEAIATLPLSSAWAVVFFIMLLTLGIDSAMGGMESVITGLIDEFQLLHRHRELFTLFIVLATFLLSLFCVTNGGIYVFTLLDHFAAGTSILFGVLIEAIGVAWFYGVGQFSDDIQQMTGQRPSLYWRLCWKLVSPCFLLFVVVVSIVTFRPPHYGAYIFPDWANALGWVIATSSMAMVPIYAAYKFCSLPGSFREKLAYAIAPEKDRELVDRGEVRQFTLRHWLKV
T3 sequence (P23975 whole entry): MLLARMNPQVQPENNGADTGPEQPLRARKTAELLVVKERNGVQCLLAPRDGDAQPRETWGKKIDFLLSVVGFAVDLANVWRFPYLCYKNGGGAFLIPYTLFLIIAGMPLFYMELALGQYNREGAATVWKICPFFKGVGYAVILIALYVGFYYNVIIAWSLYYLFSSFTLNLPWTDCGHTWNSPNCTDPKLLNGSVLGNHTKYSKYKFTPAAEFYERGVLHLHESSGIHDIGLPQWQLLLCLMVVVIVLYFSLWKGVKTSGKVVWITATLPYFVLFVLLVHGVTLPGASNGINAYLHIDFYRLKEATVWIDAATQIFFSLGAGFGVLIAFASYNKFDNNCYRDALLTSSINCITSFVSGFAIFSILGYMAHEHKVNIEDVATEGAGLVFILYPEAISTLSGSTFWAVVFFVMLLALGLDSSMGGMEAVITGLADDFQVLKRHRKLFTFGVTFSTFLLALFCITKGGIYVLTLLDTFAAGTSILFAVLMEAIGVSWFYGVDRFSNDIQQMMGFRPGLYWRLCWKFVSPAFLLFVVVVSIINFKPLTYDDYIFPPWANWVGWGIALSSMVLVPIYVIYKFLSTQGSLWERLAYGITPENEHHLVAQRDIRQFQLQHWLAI
Sequence of Cytochrome P450 3A4 (P08684 whole entry): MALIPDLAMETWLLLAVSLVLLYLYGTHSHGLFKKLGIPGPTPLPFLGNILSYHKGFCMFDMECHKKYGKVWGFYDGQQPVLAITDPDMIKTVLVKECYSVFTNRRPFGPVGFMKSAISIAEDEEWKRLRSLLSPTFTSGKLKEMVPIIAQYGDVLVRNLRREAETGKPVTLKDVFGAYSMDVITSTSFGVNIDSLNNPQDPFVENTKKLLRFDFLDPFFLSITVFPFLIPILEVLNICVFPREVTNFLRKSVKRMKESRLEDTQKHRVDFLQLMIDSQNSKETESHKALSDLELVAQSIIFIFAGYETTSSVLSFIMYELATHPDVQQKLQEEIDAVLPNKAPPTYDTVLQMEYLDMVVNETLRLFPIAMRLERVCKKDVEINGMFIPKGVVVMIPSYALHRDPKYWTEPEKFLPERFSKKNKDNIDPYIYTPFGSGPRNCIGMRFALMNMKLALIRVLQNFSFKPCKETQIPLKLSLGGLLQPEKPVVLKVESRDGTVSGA
Sequence of CYP3A4 (P08684 whole entry): as above
Sequence of Cytochrome P450 2C9 (P11712 whole entry): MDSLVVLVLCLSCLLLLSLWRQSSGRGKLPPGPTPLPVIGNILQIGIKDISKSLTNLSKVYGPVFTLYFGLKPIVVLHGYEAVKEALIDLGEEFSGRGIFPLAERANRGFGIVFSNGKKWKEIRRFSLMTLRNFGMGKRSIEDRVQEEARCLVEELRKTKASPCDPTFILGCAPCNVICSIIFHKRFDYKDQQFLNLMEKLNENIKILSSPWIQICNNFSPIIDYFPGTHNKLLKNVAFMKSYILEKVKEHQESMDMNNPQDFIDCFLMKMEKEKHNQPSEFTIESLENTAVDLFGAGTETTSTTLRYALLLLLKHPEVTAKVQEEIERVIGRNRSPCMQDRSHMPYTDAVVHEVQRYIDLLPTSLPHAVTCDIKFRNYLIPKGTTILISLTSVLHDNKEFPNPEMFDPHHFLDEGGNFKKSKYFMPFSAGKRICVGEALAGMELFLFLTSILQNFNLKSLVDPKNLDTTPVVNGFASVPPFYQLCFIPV
Sequence of CYP2C9 (P11712 whole entry): as above
Sequence of Cytochrome P450 2C19 (P33261 whole entry): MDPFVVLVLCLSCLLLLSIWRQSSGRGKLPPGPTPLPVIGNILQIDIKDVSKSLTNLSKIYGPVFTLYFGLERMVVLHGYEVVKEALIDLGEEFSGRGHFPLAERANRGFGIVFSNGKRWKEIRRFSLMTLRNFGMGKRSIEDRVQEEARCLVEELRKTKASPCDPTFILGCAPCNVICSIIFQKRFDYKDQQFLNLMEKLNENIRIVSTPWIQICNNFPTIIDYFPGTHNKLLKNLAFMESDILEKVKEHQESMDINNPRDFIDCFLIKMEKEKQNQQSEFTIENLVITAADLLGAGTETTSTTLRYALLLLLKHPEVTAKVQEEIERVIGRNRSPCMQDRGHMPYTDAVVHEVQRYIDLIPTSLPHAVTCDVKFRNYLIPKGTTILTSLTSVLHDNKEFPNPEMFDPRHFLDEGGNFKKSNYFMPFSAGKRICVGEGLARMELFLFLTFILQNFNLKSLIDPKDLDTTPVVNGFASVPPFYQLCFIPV
Sequence of CYP2C19 (P33261 whole entry): as above

| Structure (SMILES) | IC50 [1] | IC50 [2] | inhibition at 10 µM (CYP1A2) | inhibition at 10 µM (CYP2D6) | inhibition [3] | inhibition [4] | remaining at 0.5 h, 1 µM [5] | inhibition [6] | inhibition at 10 µM (CYP2C19) | IC50 [7] | inhibition at 10 µM (CYP2C9) | inhibition at 10 µM (CYP3A4) | Ratio IC50 [8] | Ratio IC50 [9] | Ratio IC50 [10] | Ratio IC50 [11] | also measured |
| --- | --- | --- | --- | --- | --- | --- | --- | --- | --- | --- | --- | --- | --- | --- | --- | --- | --- |
| Cc1ccc(OC(CC2CNC2)c2ccc(Cl)c(F)c2)cc1 (centres undefined) | 110 nM | 38.5 nM | 44% | 10% | 100% | 100% | 59% | 97% | 7.6% | 33.1 nM | 19% | 13% | – | – | – | – | – |
| Cc1cccc(OC(CC2CNC2)c2ccc(Cl)c(F)c2)c1 (centres undefined) | 80.4 nM | 23 nM | 58% | 12% | 100% | 100% | 36% | 100% | 5.5% | 14.7 nM | 6.8% | 12% | – | – | – | – | – |
| Fc1cc(C(CC2CNC2)Oc2ccccc2Cl)ccc1Cl (centres undefined) | 164 nM | 37.5 nM | 76% | 12% | 100% | 100% | 89% | 82% | 7.4% | 30.8 nM | 18% | 13% | – | – | – | – | – |
| Fc1ccc(OC(CC2CNC2)c2ccc(Cl)c(F)c2)cc1 (centres undefined) | 143 nM | 58.1 nM | – | – | 100% | 100% | 85% | 72% | – | 32.5 nM | – | – | > 7 | > 7 | > 7 | > 7 | IC50 (Cytochrome P450 3A4): 400 nM; IC50 (Cytochrome P450 2C19): 1300 nM; IC50 (Cytochrome P450 2C9): 2400 nM; IC50 (Cytochrome P450 2D6): 1000 nM; IC50 (Cytochrome P450 1A2): 19000 nM |
| Fc1ccccc1OC(CC1CNC1)c1ccc(Cl)c(Cl)c1 (centres undefined) | 53.6 nM | 73.8 nM | – | – | 100% | 100% | – | 59% | – | 33.5 nM | – | – | > 7 | > 7 | > 7 | > 7 | – |
| Fc1cc(C(CC2CNC2)Oc2ccccc2F)ccc1Cl (centres undefined) | 63.9 nM | 46.3 nM | 33% | 9.6% | 100% | 100% | 71% | 77% | 7% | 15.9 nM | 12% | 7.2% | > 7 | > 7 | > 7 | > 7 | IC50 (Cytochrome P450 3A4): 710 nM; IC50 (Cytochrome P450 2C19): 250 nM; IC50 (Cytochrome P450 2C9): 2200 nM; IC50 (Cytochrome P450 2D6): 8700 nM; IC50 (Cytochrome P450 1A2): 44000 nM; IC50 [12]: 1410 nM |
| Fc1cc(C(CC2CNC2)Oc2ccccc2)ccc1Cl (centres undefined) | 33.1 nM | 51.3 nM | – | – | 100% | 100% | 41% | 80% | – | 10.6 nM | – | – | – | – | – | – | – |
| O=c1cc(-c2ccccc2)oc2c1ccc1ccccc12 [ALPHA-NAPHTHOFLAVONE] | – | – | 5.4% | – | – | – | – | – | – | – | – | – | – | – | – | – | – |
| Cc1ccccc1OC(CC1CNC1)c1ccc(Cl)c(F)c1 (centres undefined) | 162 nM | 37.7 nM | 55% | 15% | 100% | 100% | 59% | 94% | 14% | 68.6 nM | 32% | 16% | – | – | – | – | – |
| Clc1ccc(COC(Cn2ccnc2)c2ccc(Cl)cc2Cl)c(Cl)c1 (centres undefined) [MICONAZOLE] | – | – | – | – | – | – | – | – | 8.6% | – | – | – | – | – | – | – | – |
| Clc1ccc(C(CC2CNC2)Oc2ccccc2)cc1Cl (centres undefined) | 52.1 nM | 83.4 nM | – | – | 100% | 100% | 67% | 50% | – | 37.2 nM | – | – | > 7 | > 7 | > 7 | > 7 | – |
| Cc1cccc(OC(CC2CNC2)c2ccc(Cl)c(Cl)c2)c1 (centres undefined) | – | – | – | – | 100% | 100% | 62% | 21% | – | – | – | – | – | – | – | – | – |
| Nc1ccc(S(=O)(=O)Nc2ccnn2-c2ccccc2)cc1 [SULFAPHENAZOLE] | – | – | – | – | – | – | – | – | – | – | 11.3% | – | – | – | – | – | – |
| Fc1cccc(OC(CC2CNC2)c2ccc(Cl)c(F)c2)c1 (centres undefined) | 35.6 nM | 36.6 nM | 30% | 13% | 100% | 100% | 73% | 98% | 6.4% | 14.6 nM | 11% | 11% | > 7 | > 7 | > 7 | > 7 | IC50 (Cytochrome P450 3A4): 510 nM; IC50 (Cytochrome P450 2C19): 210 nM; IC50 (Cytochrome P450 2C9): 3100 nM; IC50 (Cytochrome P450 2D6): 4000 nM; IC50 (Cytochrome P450 1A2): 13000 nM; IC50 [12]: 1460 nM |
| Fc1ccc(OC(CC2CNC2)c2ccc(Cl)c(Cl)c2)cc1 (centres undefined) | 129 nM | 71.9 nM | – | – | 100% | 100% | – | 64% | – | 33.7 nM | – | – | > 7 | > 7 | > 7 | > 7 | – |
| Fc1cc(C(CC2CNC2)Oc2cccc(Cl)c2)ccc1Cl (centres undefined) | 82.5 nM | 47.1 nM | 40% | 7.9% | 100% | 100% | 57% | 87% | 3.3% | 30 nM | 4.2% | 13% | > 7 | > 7 | > 7 | > 7 | IC50 (Cytochrome P450 3A4): 600 nM; IC50 (Cytochrome P450 2C19): 250 nM; IC50 (Cytochrome P450 2C9): 1100 nM; IC50 (Cytochrome P450 2D6): 530 nM; IC50 (Cytochrome P450 1A2): 15000 nM |
